Results from patent US12358904B2, “Inhibitors of TYK2” (Atomwise Inc., priority 2023, dated 2025).
pIC50: −log10 of the molar value.

Tests used:
[1] = target: T1, TYK2-JH2 (Homo sapiens, UniProt P29597); test: TYK2-JH2 HTRF binding assay (ligand efficiency); conditions: calculated from IC50 of the TYK-JH2 binding assay (Equation 1)
T1 construct: TYK JH2 enzyme mix (ChemPartnec CP20210818A-BV); purchased ChemPartner CP20210818A-BV
Experimental: The following example describes the TYK2-JH2 HTRF binding assay used to determine the ligand efficiency of the TYK2 inhibitors.
To calculate ligand efficiency, Equation 1 is applied:
[formula] in which IC50 comes from the binding assay used to determine compound potency.
TYK JH2 enzyme mix (ChemPartnec CP20210818A-BV), tracer (ChemPartnec CP-0029472-051) and mAb Anti-6HIS Tb cryptate Gold (Cisbio: Cat No. 61H12TLA) mix were prepared in assay buffer (10 mM MgCl2, 20 mM HEPES pH 7.5, 0.01% Triton X-100, 1 mM DTT). Compounds diluted in DMSO (Final Concentrations 0.1 to 0.000005 [μM]) and enzyme mix (0.5 nM Final Concentration) were added to 384 well plates, briefly centrifuged and incubated at room temperature for 10 minutes. After incubation, tracer mix (Tracer-35 nM final concentration); (Mab Anti-6HIS Tb cryptate Gold-0.5× final)) was added, briefly centrifuged then incubate at room temperature 60 minutes. After incubation, plates were read by Envision TR-FRET (Ex340/Em495/520) protocol (PerkinElmer-Envision 2104 multilabel plate reader).

[2] = tested on: IL-12/pSTAT4; test: IL-12 induced pSTAT4 assay in NK-92 cells; type: cell-based; conditions: Homo sapiens, NK92, IL-12 stimulation, read-out: Cellular potency (IL-12/pSTAT4)
Experimental: The following example describes the IL-12 induced pSTAT4 assay used to determine the cellular potency (IL-12/pSTAT4) of the TYK2 inhibitors.
NK-92 cells (human natural killer lymphoma cell line) were cultured in MEM α, nucleosides (Life Technologies, 22571020) 12.5% heat inactivated FBS (Dominique Dutscher, S1810), 12.5% heat inactivated Horse serum (Life Technologies, 26050088) and 1% Penicillin-Streptomycin (Life Technologies, 15140122), 5 ng/mL human IL-2 (R&D systems, 202-II/CF), 0.2 mM inositol (Sigma, PHR1351 lot LRAC4118), 0.1 mM β-mercaptoethanol (Life Technologies, 31350010), and 0.02 mM folic acid (Sigma, F8758).
NK-92 cells were starved overnight in starvation medium (Opti-MEM (ThermoFisher, 11058-021), 10% charcoal stripped FBS (ThermoFisher 12676-029), and 1% Penicillin (100U/ml)-Streptomycin (100 μg/ml) (ThermoFisher, ref 15140122)), then plated in a 96-well tissue culture plate (20K cells/well) prior to pre-incubation with test compounds (Final Concentration [nM] 1000 to 0.05) for 30 minutes at 37° C. Cells were stimulated with IL-12 (Final Concentration l0 ng/ml) for 30 minutes at 37° C., and terminated by addition of lysis buffer (MSD K150PAD-2). pSTAT4 (Tyr693) was detected using the Mesa Scale Discovery platform (MSD K150PAD-2), according to manufacturer's instruction. Briefly, cell lysates were added to pre-blocked plates and incubated for 1 hour at room temperature. Plates were washed and incubated with detection antibody for 1 hour at room temperature. Plates were washed and Read Buffer was added prior to measurement on the MSD (1300 MSD Quickplex SQ 120).

T1 sequence (P29597 589-875 limits assumed): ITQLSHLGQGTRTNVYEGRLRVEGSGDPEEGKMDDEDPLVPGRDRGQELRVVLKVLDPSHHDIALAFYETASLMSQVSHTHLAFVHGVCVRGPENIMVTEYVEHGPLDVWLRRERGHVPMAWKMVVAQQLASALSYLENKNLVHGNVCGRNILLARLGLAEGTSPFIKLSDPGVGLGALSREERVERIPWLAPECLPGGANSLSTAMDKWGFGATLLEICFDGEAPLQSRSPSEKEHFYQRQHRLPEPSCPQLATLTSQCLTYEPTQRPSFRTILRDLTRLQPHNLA

SMILES: CC1(CNc2ccc(Nc3cc(Nc4ncccc4S(C)(=O)=O)ncn3)nc2)COC1 [Compound 36, N^4-(5-(((3-methyloxetan-3-yl)methyl)amino)123yridine-2-yl)-N^6-(3-(methylsulfonyl)123yridine-2-yl)pyrimidine-4,6-diamine]
- Ligand Efficiency [1]: ††† (†††: >0.39)
- pIC50 [2]: > 7.00

SMILES: Cc1nccc(Nc2cc(Nc3ccccc3C(N)=O)ncn2)n1 [Compound 48, 2-((6-((2-methylpyrimidin-4-yl)amino)pyrimidin-4-yl)amino) benzamide]
- Ligand Efficiency [1]: ††† (†††: >0.39)
- pIC50 [2]: 6.00 to 7.00

SMILES: CC1(Nc2cnc(Nc3cc(Nc4ncccc4S(C)(=O)=O)ncn3)cn2)COC1 [Compound 74, N^4-(5-(3-methyloxetan-3-ylamino)pyrazin-2-yl)-N^6-(3-(methylsulfonyl)167yridine-2-yl)pyrimidine-4,6-diamine]
- Ligand Efficiency [1]: ††† (†††: >0.39)
- pIC50 [2]: 6.00 to 7.00

SMILES: CS(=O)(=O)c1cccnc1Nc1cc(Nc2ccc([C@@H](N3CC4(COC4)C3)C(F)(F)F)cn2)ncn1 [Compound 16, I-N^4-(3-(methylsulfonyl)98yridine-2-yl)-N^6-(5-(2,2,2-trifluoro-1-(2-oxa-6-azaspiro[3.3]heptan-6-yl)ethyl)98yridine-2-yl)pyrimidine-4,6-diamine]
- Ligand Efficiency [1]: †† (††: 0.37-0.39)
- pIC50 [2]: > 7.00

SMILES: Cn1ccc(Nc2cc(Nc3ccccc3C(N)=O)ncn2)n1 [Compound 67, 2-((6-((1-methyl-1H-pyrazol-3-yl)amino)pyrimidin-4-yl)amino)benzamide]
- Ligand Efficiency [1]: ††† (†††: >0.39)
- pIC50 [2]: < 6.00

SMILES: C[C@@H](c1ccc(Nc2cc(Nc3ncc(Cl)cc3S(C)(=O)=O)ncn2)nc1)N1CC2(COC2)C1 [Compound 14, (S)—N^4-(5-(1-(2-oxa-6-azaspiro[3.3]heptan-6-yl)ethyl) 95yridine-2-yl)-N^6-(5-chloro-3-(methylsulfonyl)95yridine-2-yl)pyrimidine-4,6-diamine]
- Ligand Efficiency [1]: ††† (†††: >0.39)
- pIC50 [2]: > 7.00

SMILES: COc1ccc(Nc2cc(NC(=O)C3CC3)ncn2)c(C(N)=O)c1 [Compound 70, 2-((6-(cyclopropanecarboxamido)pyrimidin-4-yl)amino)-5-methoxy benzamide]
- Ligand Efficiency [1]: ††† (†††: >0.39)
- pIC50 [2]: < 6.00

SMILES: C[C@H](NC1COC1)c1ccc(Nc2cc(Nc3ccccc3S(C)(=O)=O)ncn2)nc1 [Compound 40, I-N^4-(2-(methylsulfonyl)phenyl)-N^6-(5-(1-(oxetan-3-ylamino)ethyl)128yridine-2-yl)pyrimidine-4,6-diamine]
- Ligand Efficiency [1]: ††† (†††: >0.39)
- pIC50 [2]: 6.00 to 7.00

SMILES: Cc1cccc(Nc2cc(Nc3cccnc3C(N)=O)ncn2)n1 [Compound 50, 3-((6-((6-methylpyridin-2-yl)amino)pyrimidin-4-yl)amino) picolinamide]
- Ligand Efficiency [1]: ††† (†††: >0.39)
- pIC50 [2]: 6.00 to 7.00

SMILES: C[C@@H](c1ccc(Nc2cc(Nc3ncccc3S(C)(=O)=O)ncn2)nc1)N1CCCC12CCOCC2 [Compound 29, (S)—N^4-(5-(1-(8-oxa-1-azaspiro[4.5]decan-1-yl)ethyl)111yridine-2-yl)-N^6-(3-(methylsulfonyl)111yridine-2-yl)pyrimidine-4,6-diamine]
- Ligand Efficiency [1]: †† (††: 0.37-0.39)
- pIC50 [2]: > 7.00

SMILES: CS(=O)(=O)c1ccccc1Nc1cc(Nc2ccc(C3(NC4COC4)CC3)cn2)ncn1 [Compound 41, N^4-(2-(methylsulfonyl)phenyl)-N^6-(5-(1-(oxetan-3-ylamino)cyclopropyl)130yridine-2-yl)pyrimidine-4,6-diamine]
- Ligand Efficiency [1]: †† (††: 0.37-0.39)
- pIC50 [2]: 6.00 to 7.00

SMILES: C[C@H](c1ccc(Nc2cc(Nc3ncccc3S(C)(=O)=O)ncn2)nc1)N1CCC2(CCOCC2)C1 [Compound 30, I-N^4-(5-(1-(8-oxa-2-azaspiro[4.5]decan-2-yl)ethyl)112yridine-2-yl)-N^6-(3-(methylsulfonyl)112yridine-2-yl)pyrimidine-4,6-diamine]
- Ligand Efficiency [1]: †† (††: 0.37-0.39)
- pIC50 [2]: > 7.00

SMILES: Cc1ccnc(Nc2cc(Nc3ccccc3P(C)(C)=O)ncn2)c1 [Compound 63, N^4-(2-(dimethylphosphoryl)phenyl)-N^6-(4-methylpyridin-2-yl) pyrimidine-4,6-diamine]
- Ligand Efficiency [1]: ††† (†††: >0.39)
- pIC50 [2]: 6.00 to 7.00

SMILES: Cc1ccnc(Nc2cc(Nc3ccccc3C(N)=O)ncn2)n1 [Compound 58, 2-(6-(4-methylpyrimidin-2-ylamino)pyrimidin-4-ylamino)benzamide]
- Ligand Efficiency [1]: ††† (†††: >0.39)
- pIC50 [2]: < 6.00

SMILES: Cn1cc(-c2ccnc(Nc3cc(Nc4ccc(NC5(C)COC5)cn4)ncn3)c2S(C)(=O)=O)cn1 [Compound 72, N^4-(4-(1-methyl-1H-pyrazol-4-yl)-3-(methylsulfonyl)164yridine-2-yl)-N^6-(5-(3-methyloxetan-3-ylamino)164yridine-2-yl)pyrimidine-4,6-diamine]
- Ligand Efficiency [1]: † (†: <0.37)
- pIC50 [2]: < 6.00

SMILES: Cc1cccc(Nc2cc(Nc3ccncc3S(C)(=O)=O)ncn2)n1 [Compound 60, N^4-(6-methylpyridin-2-yl)-N^6-(3-(methylsulfonyl)151yridine-4-yl) pyrimidine-4,6-diamine]
- Ligand Efficiency [1]: ††† (†††: >0.39)
- pIC50 [2]: < 6.00

SMILES: COc1cc(Nc2cc(Nc3ncccc3S(C)(=O)=O)ncn2)ncc1NC1(C)COC1 [Compound 62]
- Ligand Efficiency [1]: †† (††: 0.37-0.39)
- pIC50 [2]: < 6.00

SMILES: C[C@H]1COCCN1c1ccc(Nc2cc(Nc3ccccc3S(C)(=O)=O)ncn2)nc1 [Compound 54, (S)—N^4-(5-(3-methylmorpholino)144yridine-2-yl)-N^6-(2-(methylsulfonyl)phenyl)pyrimidine-4,6-diamine]
- Ligand Efficiency [1]: † (†: <0.37)
- pIC50 [2]: < 6.00

SMILES: CC(c1ccc(Nc2cc(Nc3ncccc3S(C)(=O)=O)ncn2)nc1)N1CC2(CC(C(F)F)C2)C1 (centres unmarked) [Compound 34, N^4-(5-(1-(6-(difluoromethyl)-2-azaspiro[3.3]heptan-2-yl)ethyl) 120yridine-2-yl)-N^6-(3-(methylsulfonyl)120yridine-2-yl)pyrimidine-4,6-diamine]
- Ligand Efficiency [1]: †† (††: 0.37-0.39)
- pIC50 [2]: > 7.00

SMILES: Cc1cc(Nc2cc(Nc3ncccc3S(C)(=O)=O)ncn2)nnc1C(C)N1CC2(COC2)C1 (centres unmarked) [Compound 77, N^4-(6-(1-(2-oxa-6-azaspiro[3.3]heptan-6-yl)ethyl)-5-methylpyri 172yridi-3-yl)-N^6-(3-(methylsulfonyl)172yridine-2-yl)pyrimidine-4,6-diamine]
- Ligand Efficiency [1]: †† (††: 0.37-0.39)
- pIC50 [2]: < 6.00

SMILES: CS(=O)(=O)c1ccccc1Nc1cc(Nc2ccc(NC3COC3)cn2)ncn1 [Compound 80, N^4-(2-(methylsulfonyl)phenyl)-N^6-(5-(oxetan-3-ylamino)177yridine-2-yl) pyrimidine-4,6-diamine]
- Ligand Efficiency [1]: † (†: <0.37)
- pIC50 [2]: < 6.00

SMILES: CC(C)(c1ccc(Nc2cc(Nc3ncccc3S(C)(=O)=O)ncn2)nc1)N1CC2(CCOCC2)C1 [Compound 33, N^4-(5-(2-(7-oxa-2-azaspiro[3.5]nonan-2-yl)propan-2-yl)118yridine-2-yl)-N^6-(3-(methylsulfonyl)118yridine-2-yl)pyrimidine-4,6-diamine]
- Ligand Efficiency [1]: †† (††: 0.37-0.39)
- pIC50 [2]: > 7.00

SMILES: Cc1cccnc1Nc1cc(Nc2ccccc2C(N)=O)ncn1 [Compound 68, 2-((6-((3-methylpyridin-2-yl)amino)pyrimidin-4-yl)amino) benzamide]
- Ligand Efficiency [1]: ††† (†††: >0.39)
- pIC50 [2]: < 6.00

SMILES: C[C@@H](c1ccc(Nc2cc(Nc3ncccc3S(C)(=O)=O)ncn2)nc1)N1CCCC1 [Compound 15, I-N^4-(3-(methylsulfonyl)97yridine-2-yl)-N^6-(5-(1-(97yridine9797e-1-yl)ethyl)97yridine-2-yl)pyrimidine-4,6-diamine]
- Ligand Efficiency [1]: ††† (†††: >0.39)
- pIC50 [2]: > 7.00

SMILES: CS(=O)(=O)c1ccccc1Nc1cc(Nc2ccc(C(=O)NC3COC3)cn2)ncn1 [Compound 79, 6-((6-((2-(methylsulfonyl)phenyl)amino)pyrimidin-4-yl)amino)-N-(oxetan-3-yl)nicotinamide]
- Ligand Efficiency [1]: †† (††: 0.37-0.39)
- pIC50 [2]: < 6.00
